Legend:
[1] = tested on: human peripheral blood lymphocytes (sheep red blood cells as antigen); assay: Antigen-specific adjuvanticity: direct anti-SRBC plaque forming cells, human system; format: cell-based
Method: ^1 Studies were carried in a manner similar to those of Table 1,
except that a human lymphocyte preparation was used.
The results shown in Table 7, below, were obtained similarly to those discussed above, but using human lymphocytes. Some of those studies utilized lymphocytes from more than one individual, and are therefore reported with multiple entries.
Human peripheral blood lymphocytes (PBL) were prepared from normal heparinized venous blood by Ficoll-diatrizoate density gradient centrifugation. PBL were depleted of suppressor T cells bearing the histamine type 2 receptor by adhering them to the surfaces of histamine-rabbit serum albumin-coated plastic petri dishes (Cell-ect No. 2 kit; Seragen, Boston, Mass.) and by recovering the nonadherent cells by panning as described by Wysocki and Sato, Proc. Natl. Acad. Sci. USA, 75:2844 (1978) and modified by Cavagnaro and Osband, Biotechniques, January/February:30 (1983).
The tissue culture medium employed in these studies for human lymphocytes was prepared as follows: One hundred milliliters (ml) contained 87.9 ml RPMI 1640 (Flow Laboratories, Rockville, Md.), 0.1 ml 100×glutamine,1.0 ml of 1.0 M HEPES buffer (Microbilogical Associates, Betheseda, Md.), 1.0 ml of water containing 10^4 U of penicillin G and 10^4 micrograms of streptomycin, and 10 ml of fresh autologous heat-inactivatedplasma. For evaluation of the primary humoral immune response to SRBC, lymphoid cells prepared as above were cultured at a density of 2×10^6 /ml in a volume of 1.0 ml containing 5×10^6 SRBC as antigen (Colorado Serum Co., Denver, Colo.) together with IL-2 (a partially purified preparation of human IL-2 that was free of interferon-gamma activity was obtained from Electro-Nucleonics, Inc., Silver Spring, Md.) and the guanine nucleoside derivative.
(§1) Assay of plaque forming cells (PFC). PFC secreting antibodies against SRBC were evaluated after 4 or 5 days of culture using a modification of the hemolytic plaque assay of Jerne and Nordin, Science, 140:405 (1963). The cells were brought up in complete medium before plaquing; they were plaqued in standard low Mr agarose (Bio-Rad Laboratories, Richmond Calif.), and were incubated in SRBC-absorbed guinea pig complement for one hour after a 1.5 hour incubation without complement.

[2] = tested on: murine lymphocytes (sheep red blood cells as antigen); assay: Antigen-specific adjuvanticity: direct anti-SRBC plaque forming cells, murine system; format: cell-based, mouse; conditions: for Average 1 Log Plaque Values: Table 9, murine, * = single study
Excerpt: ^1 Adjuvanticities against sheep red blood cells [SRBC] measured in
direct plaqueforming cells per culture of lymphocytes from the mouse
strains shown. Details of the procedure are provided in the Materials and
Methods Section. Standard errors from the enumerated mean values are show
A large number of comparisons of adjuvanticity using human and murine lymphocytes as the source of leukocytes have been carried out using compounds of the present invention, as well as with new compounds excluded from the present invention. […] Interstudy comparisons are however useful for showing trends and large differences. Tables 5, 6 and 7, hereinafter, provide exemplary data from such studies in which only the activity at the peak concentration is shown for each compound and the results for the controls are omitted.
Lymphocyte cultures. The serum-containing culture medium water prepared to contain the following per 100 milliliters: 91.9 milliliters RPMI 1640 (Flow Laboratories, Inc., Rockville, Md.), 0.1 milliliters of 100×glutamine, 1.0 milliliter of 100×sodium pyruvate, 1 0 milliliter of 50×nonessential amino acids, 1.0 milliliter of water containing 10^4 units of penicillin G and 10^4 micrograms of streptomycin, and 5.0 milliliters of a supportive lot of fetal calf serum (FCS). These ingredients were admixed to apparent homogeneity. Spleen cell suspensions and populations enriched for splenic B cells were prepared as described in Goodman et al., J. Immunol., 121:1905 (1978).
For evaluation of the primary humoral immune response to sheep erythrocytes (SRBC), 5×10^6 to 10^7 murine spleen cells were cultured in 1.0 milliliter of 5% FCS-containing medium for 4 or 5 days in the presence and absence of immunogen. Cells were incubated in culture trays (Costar, Cambridge, Mass.) at 37° C. in a humidified atmosphere of 10% CO2 in air using tissue culture boxes (CBS Scientific, Del Mar, Calif.) that were rocked at a frequency of 7 cycles per minute. Pooled SRBC are available from the Colorado Serum Co., Denver Colo.
as §1

murine spleen cells = assay: Mitogenicity: [3H]TdR uptake, murine system; format: cell-based, mouse; conditions: Table 2
Excerpt: ^1 Mitogenicity measured by the uptake of [^3 H]TdR
(tritiumlabeled thymidine deoxyribonucleoside) as determined by measuring
counts per minute (cpm) per cell culture using the conditions discussed i
the Materials and Methods Section.

[3] = Table 7, later studies, single preparation
[4] = Table 5, murine system, at peak concentration
[5] = Table 6, murine system, at peak concentration

Structure (SMILES): Nc1nc2c(c(=O)[nH]1)n(CC=Cc1ccccc1)c(=O)n2[C@@H]1O[C@H](CO)[C@@H](O)[C@H]1O [compound 22827, 7-[(3-Phenyl)-2-propenyl]-8-oxoguanosine]
- Peak Direct anti-SRBC PFC/Culture [1, 3]: 2577 ± 300 PFC/Culture
- Peak Direct anti-SRBC PFC/Culture [2, 4]: 1357 ± 226 PFC/Culture
- adjuvanticity higher / more active than comparison compound of U.S. Pat. No. 4,643,992 ([2]; murine system (Table 5), vs 7m8oGuo or compounds of that patent): more than 100%

Structure (SMILES): C=CCn1c(=S)n([C@@H]2O[C@H](COC(C)=O)[C@@H](OC(C)=O)[C@H]2OC(C)=O)c2nc(N)[nH]c(=O)c21 [compound 22360, 7-(2-Propenyl)-8-thioxo-2',3',5'-triacetylguanosine]
- Peak Direct anti-SRBC PFC/Culture ([1]; Table 7, second group, person a): 925 PFC/Culture
- Peak Direct anti-SRBC PFC/Culture ([1]; Table 7, second group, person b): 6008 PFC/Culture
- Peak Direct anti-SRBC PFC/Culture ([1]; Table 7, second group, person c): 5050 PFC/Culture
- Average 1 Log Plaque Values ([1]; Table 9, human, * = single study): 38,508 ± 26,802 per micromole
- Peak Direct anti-SRBC PFC/Culture [2, 5]: 743 ± 48 PFC/Culture
- Direct Anti-SRBC PFC/Culture ([2]; Table 8, 1 × 10^-5 M): 1176 PFC/Culture
- Average 1 Log Plaque Values [2]: 53,695 ± 28,444 per micromole

Structure (SMILES): C=CCn1c(=S)n(C2OC(COC(=O)c3ccccc3)C3OC(C)(C)OC32)c2nc(N)nc(OC(=O)c3ccccc3)c21 (stereo not shown) [compound 23314, 7-(2-Propenyl)-6,5'-dibenzoyl-2',3'-O-isopropylidene-8-thioxoguanosine]
- Peak Concentration ([2]; Table 6, murine system): 10^-5 moles per liter
- Peak Direct anti-SRBC PFC/Culture ([2]; Table 6, study b): 243 ± 19 PFC/Culture

Structure (SMILES): C=CCn1c(=[Se])n([C@@H]2O[C@H](CO)[C@@H](O)[C@H]2O)c2nc(N)[nH]c(=O)c21 [compound 23369, 7-(2-Propenyl)-8-selenoxoguanosine]
- Peak Direct anti-SRBC PFC/Culture [1, 3]: 2204 ± 370 PFC/Culture
- Peak Direct anti-SRBC PFC/Culture [2, 4]: 2425 ± 229 PFC/Culture

Structure (SMILES): CC=CCn1c(=O)n([C@@H]2O[C@H](CO)[C@@H](O)[C@H]2O)c2nc(N)[nH]c(=O)c21 [compound 23679, 7-(2-Butenyl)-8-oxoguanosine]
- Peak Direct anti-SRBC PFC/Culture [1, 3]: 3129 ± 252 PFC/Culture
- Direct Anti-SRBC PFC/Culture ([2]; Table 8, 1 × 10^-5 M): 612 PFC/Culture
- Average 1 Log Plaque Values [2]: 52,332 per micromole

Structure (SMILES): Nc1nc2c(nc(SCC=Cc3ccccc3)n2[C@@H]2O[C@H](CO)[C@@H](O)[C@H]2O)c(=O)[nH]1 [compound 22359, 8-(Cinnamylmercapto)guanosine]
- [3H] TdR Uptake (murine spleen cells; 3 × 10^-4 M): 1300 ± 80 cpm/culture
- [3H] TdR Uptake (murine spleen cells; 10^-3 M): 1700 ± 280 cpm/culture
- [3H] TdR Uptake (murine spleen cells; 10^-4 M): 1600 ± 90 cpm/culture
- Direct Anti-SRBC PFC/Culture ([2]; Table 1, C57BL/6J, 3 × 10^-4 M): 2620 ± 100 PFC/Culture
- Direct Anti-SRBC PFC/Culture ([2]; Table 1, C57BL/6J, 10^-3 M): 3110 ± 350 PFC/Culture
- Direct Anti-SRBC PFC/Culture ([2]; Table 1, CBA/CaJ, 3 × 10^-4 M): 157 ± 7 PFC/Culture
- Direct Anti-SRBC PFC/Culture ([2]; Table 1, CBA/CaJ, 10^-3 M): 653 ± 52 PFC/Culture
- Direct Anti-SRBC PFC/Culture ([2]; Table 1, CBA/CaJ, 10^-4 M): 123 ± 21 PFC/Culture

Structure (SMILES): CCCCCCCCCCn1c(=O)n([C@@H]2O[C@H](CO)[C@@H](O)[C@H]2O)c2nc(N)[nH]c(=O)c21 [compound 23894, 7-Decyl-8-oxoguanosine]
- Peak Direct anti-SRBC PFC/Culture [2, 4]: 90 ± 15 PFC/Culture

Structure (SMILES): Nc1nc2c(nc(Br)n2[C@@H]2O[C@H](CO)[C@@H](O)[C@H]2O)c(=O)[nH]1 [8BrGuo, 8-bromoguanosine, reference compound]
- Peak Direct anti-SRBC PFC/Culture [2, 4]: 2450 ± 325 PFC/Culture
- Peak Direct anti-SRBC PFC/Culture ([2]; Table 6, first study (note 4)): 1167 ± 68 PFC/Culture
- Peak Direct anti-SRBC PFC/Culture ([2]; Table 6, second study (note 4)): 633 ± 96 PFC/Culture

Structure (SMILES): Nc1nc2c(c(=O)[nH]1)n(Cc1ccccc1)c(=O)n2[C@@H]1O[C@H](CO)[C@@H](O)[C@H]1O [compound 24234, 7-Benzyl-8-oxoguanosine]
- Peak Direct anti-SRBC PFC/Culture [2, 4]: 2004 PFC/Culture
- Average 1 Log Plaque Values [2]: 110,777 ± 42,823 per micromole

Structure (SMILES): C=CCn1c(=S)n([C@@H]2O[C@H](COC(=O)c3ccccc3)[C@H]3OC(C)(C)O[C@H]32)c2nc(NC(=O)c3ccccc3)[nH]c(=O)c21 [compound 23350, 7-(2-Propenyl)-2-N,5'-O-dibenzoyl-2',3'-O-isopropylidene-8-thioxoguanosine hemihydrate]
- Peak Direct anti-SRBC PFC/Culture ([2]; Table 6, study c): 45 ± 8 PFC/Culture
- adjuvanticity, in words ([2]; murine system): substantially inactive at the concentrations utilized

Structure (SMILES): C=CCn1c(=S)n(C2OC(COC(=O)c3ccccc3)C3OC(C)(C)OC32)c2nc(N)[nH]c(=O)c21.O (stereo not shown) [compound 23351, 7-(2-Propenyl)-5'-benzoyl-2',3'-O-isopropylideneguanosine-8-thioxoguanosinequarterhydrate]
- Peak Concentration ([2]; Table 6, murine system): 10^-4 moles per liter
- Peak Direct anti-SRBC PFC/Culture ([2]; Table 6, study a): 1431 ± 134 PFC/Culture
- adjuvanticity, in words ([2]; murine system): A similar result was obtained

Structure (SMILES): CCCn1c(=O)n([C@@H]2O[C@H](CO)[C@@H](O)[C@H]2O)c2nc(N)[nH]c(=O)c21 [compound 24069, 7-Propyl-8-oxoguanosine]
- Direct Anti-SRBC PFC/Culture ([2]; Table 8, 1 × 10^-5 M): 1306 PFC/Culture

Structure (SMILES): C=CCn1c(=S)n([C@@H]2O[C@H](COC(C)=O)[C@H]3OC(C)(C)O[C@H]32)c2nc(N)[nH]c(=O)c21 [compound 23287, 5'-Acetyl-7-(2-propenyl)-2',3'-O-isopropylidene-8-thioxoguanosine]
- Peak Direct anti-SRBC PFC/Culture ([2]; Table 6, first study (note 4)): 1650 ± 63 PFC/Culture
- Peak Direct anti-SRBC PFC/Culture ([2]; Table 6, second study (note 4)): 1675 ± 298 PFC/Culture
- adjuvanticity, in words ([2]; murine system): about twice that exhibited by 8-bromoguanosine (8BrGuo)

Structure (SMILES): C=CCSc1nc2c(=O)[nH]c(N)nc2n1[C@@H]1O[C@H](CO)[C@@H](O)[C@H]1O [compound 22300, 8-(2-propenylmercapto)guanosine]
- [3H] TdR Uptake (murine spleen cells; 10^-3 M): 16,400 ± 1130 cpm/culture
- [3H] TdR Uptake (murine spleen cells; 10^-4 M): 2700 ± 130 cpm/culture
- Direct Anti-SRBC PFC/Culture ([2]; Table 1, CBA/CaJ, 3 × 10^-4 M): 870 ± 70 PFC/Culture
- Direct Anti-SRBC PFC/Culture ([2]; Table 1, CBA/CaJ, 10^-3 M): 490 ± 133 PFC/Culture
- Direct Anti-SRBC PFC/Culture ([2]; Table 1, CBA/CaJ, 10^-4 M): 420 ± 105 PFC/Culture
- adjuvanticity, in words ([2]; murine system): about equal adjuvanticity to that of 8MGuo

Structure (SMILES): CC=CCSc1nc2c(=O)[nH]c(N)nc2n1[C@@H]1O[C@H](CO)[C@@H](O)[C@H]1O [compound 22435, 8-(2-Butenylmercapto)guanosine]
- [3H] TdR Uptake (murine spleen cells; 3 × 10^-4 M): 8800 ± 200 cpm/culture
- [3H] TdR Uptake (murine spleen cells; 10^-3 M): 11,200 ± 202 cpm/culture
- [3H] TdR Uptake (murine spleen cells; 10^-4 M): 4500 ± 120 cpm/culture
- Direct Anti-SRBC PFC/Culture ([2]; Table 1, C57BL/6J, 3 × 10^-4 M): 9130 ± 1110 PFC/Culture
- Direct Anti-SRBC PFC/Culture ([2]; Table 1, C57BL/6J, 10^-3 M): 12,080 ± 470 PFC/Culture
- Direct Anti-SRBC PFC/Culture ([2]; Table 1, CBA/CaJ, 3 × 10^-4 M): 582 ± 52 PFC/Culture
- Direct Anti-SRBC PFC/Culture ([2]; Table 1, CBA/CaJ, 10^-3 M): 607 ± 57 PFC/Culture
- Direct Anti-SRBC PFC/Culture ([2]; Table 1, CBA/CaJ, 10^-4 M): 247 ± 38 PFC/Culture
- adjuvanticity, in words ([2]; murine system): greater than that of the longer 8-cinnamyl derivative (22359), but less than that of the 8-mercapto compound (8MGuo)

Structure (SMILES): C=CCn1c(=S)n([C@@H]2O[C@H](CO)[C@H]3OC(C)(C)O[C@H]32)c2nc(N)[nH]c(=O)c21 [compound 23083, 7-(2-Propenyl)-8-thioxo-2',3'-O-isopropylidineguanosine hemihydrate]
- Peak Direct anti-SRBC PFC/Culture [2, 5]: 2150 ± 250 PFC/Culture
- adjuvanticity, in words ([2]; murine system): activity substantially identical to that of 7a8oGuo, albeit at about one-half log higher concentration

Structure (SMILES): CCCCCCn1c(=O)n([C@@H]2O[C@H](CO)[C@@H](O)[C@H]2O)c2nc(N)[nH]c(=O)c21 [compound 23924, 7-Hexyl-8-oxoguanosine]
- Direct Anti-SRBC PFC/Culture ([2]; Table 8, 1 × 10^-5 M): 243 PFC/Culture
